System: retinal ganglion cells
Experiment: Optic nerve injury model ("optic crush" model), retinal ganglion cell survival
Type: in vivo
Settings: male mice, intraocular injection following optic nerve injury, 14 days after injury, compared with PBS control; difference statistically significant (FIG. 1)
Method: A PDE1 inhibitory compound was tested in an optic nerve injury model (i.e., the “optic crush” model). The studies described below were carried out using the selective PDE1 inhibitor IC200041, which has the following structure:
In this model, optic nerve surgeries were performed on male mice 8 weeks of age (average body weight, 20-26 g) under general anesthesia, as described previously (Yin Y, et al., Oncomodulin links inflammation to optic nerve regeneration. Proc Natl Acad Sci USA. 2009; 106:19587-19592). Following nerve injury, 3 μl of fluid was removed from the eye and a solution containing the PDE1 inhibitory compound was injected intraocularly.
A total of 4 mouse retinas were treated with the PDE1 inhibitor, and phosphate buffered saline (PBS) was administered to a total of 10 mouse retinas as a control. Mice were typically euthanized with an overdose of anesthesia 14 days after optic nerve injury and were perfused with saline and 4% paraformaldehyde (PFA). These mice were 10 weeks old when killed. Optic nerves and eyes were dissected and postfixed in PFA. […] Axons were counted manually in at least 8 longitudinal sections per case at pre-specified distances from the injury site, and these numbers were converted into the number of regenerating axons at various distances.

## CN1C(=O)c2c(nn(Cc3ccc(-c4ccccn4)cc3)c2Nc2ccccc2)N2C1=N[C@@H]1CCC[C@@H]12 [IC200041]
  survival of retinal ganglion cells: highly effective in increasing the survival of retinal ganglion cells
